Measured values as given in ChEMBL document CHEMBL6096698, “Discovery of a Selective and Orally Bioavailable RET Degrader with Effectiveness in Various Mutations” (J Med Chem, 2025).
Active and inactive are the calls of the source. The rule behind the calls is not given here.

Columns and labels:
[1] = PROTAC activity at CRBN/KIF5B-RET G810C mutant (unknown origin) expressed in mouse BaF3 cells assessed as induction of RET G810C mutant degradation incubated for 24 hrs by immunoblot analysis; type: cell-based; conditions: BaF3, 24 h
[2] = Induction of apoptosis in mouse BaF3 cells stably expressing KIF5B-RET G810C mutant assessed as apoptotic cells at 20 nM incubated for 48 hrs by Annexin V-FITC/PI staining based flow cytometry (reference value: 6.7 %); type: functional
HeLa = assay: Cytotoxicity against human HeLa cells; type: functional, cell-based
HL-60 = assay: Cytotoxicity against human HL-60 cells; type: functional, cell-based
[3] = Induction of apoptosis in mouse BaF3 cells stably expressing KIF5B-RET G810C mutant assessed as necrotic cells at 10 nM incubated for 48 hrs by Annexin V-FITC/PI staining based flow cytometry (reference value: 0.94 %); type: functional
[4] = Induction of apoptosis in mouse BaF3 cells stably expressing KIF5B-RET G810C mutant assessed as late apoptotic cells at 20 nM incubated for 48 hrs by Annexin V-FITC/PI staining based flow cytometry (reference value: 5.99 %); type: functional
BaF3 [5] = assay: Antitumor activity against mouse BaF3 cells stably expressing KIF5B-RET G810C mutant implanted in BALB/c nu/nu mouse at 10 mg/kg, po bid treated for 10 days relative to control; type: functional; conditions: BaF3, 240 h, time 10 day, read-out: TGI
BaF3 [6] = assay: Antiproliferative activity against mouse BaF3 cells stably expressing CCDC6-RET G810R mutant incubated for 72 hrs by CCK8 assay; type: functional, cell-based; conditions: BaF3, 72 h
BaF3 [7] = assay: Antiproliferative activity against mouse BaF3 cells stably expressing CCDC6-RET V804M mutant incubated for 72 hrs by CCK8 assay; type: functional, cell-based; conditions: BaF3, 72 h
MCF7 = assay: Cytotoxicity against human MCF7 cells; type: functional, cell-based
[8] = Induction of apoptosis in mouse BaF3 cells stably expressing KIF5B-RET G810C mutant assessed as apoptotic cells at 40 nM incubated for 48 hrs by Annexin V-FITC/PI staining based flow cytometry (reference value: 6.7 %); type: functional
BaF3 [9] = assay: Antiproliferative activity against mouse BaF3 cells stably expressing CCDC6-RET G810C mutant incubated for 72 hrs by CCK8 assay; type: functional, cell-based; conditions: BaF3, 72 h
[10] = Tmax in Sprague-Dawley rat at 1 mg/kg, iv measured for 24 hrs by LC-MS/MS analysis; type: ADME, organism-based; conditions: in vivo
[11] = Induction of apoptosis in mouse BaF3 cells stably expressing KIF5B-RET G810C mutant assessed as late apoptotic cells at 40 nM incubated for 48 hrs by Annexin V-FITC/PI staining based flow cytometry (reference value: 5.99 %); type: functional
[12] = tested on: Kinesin-1 heavy chain/ Tyrosine-protein kinase receptor RET (Homo sapiens), P07949+P33176 [G810C]; assay: In vivo PROTAC activity at CRBN/KIF5B-RET G810C mutant (unknown origin) expressed in mouse BaF3 cells implanted in BALB/c nu/nu mouse assessed as induction of RET G810C mutant degradation at 10 mg/kg, po bid treated for 10 days by Western blot analysis; type: functional, organism-based; conditions: time 10.0 day
[13] = Induction of apoptosis in mouse BaF3 cells stably expressing KIF5B-RET G810C mutant assessed as viable cells at 10 nM incubated for 48 hrs by Annexin V-FITC/PI staining based flow cytometry (reference value: 92.21 %); type: functional; conditions: read-out: Activity
[14] = Induction of apoptosis in mouse BaF3 cells stably expressing KIF5B-RET G810C mutant assessed as viable cells at 20 nM incubated for 48 hrs by Annexin V-FITC/PI staining based flow cytometry (reference value: 92.21 %); type: functional; conditions: read-out: Activity
BaF3 [15] = assay: PROTAC activity at CRBN/KIF5B-RET (unknown origin) expressed in mouse BaF3 cells assessed as induction of RET degradation at 10 nM incubated for 24 hrs by immunoblot analysis relative to control; type: cell-based
[16] = Cytotoxicity against human HEK293 cells; type: toxicity, cell-based
A549 = assay: Cytotoxicity against human A549 cells; type: functional, cell-based
[17] = Toxicity in BALB/c nu/nu mouse implanted with mouse BaF3 cells stably expressing KIF5B-RET G810C mutant assessed as body weight loss at 10 mg/kg, po bid treated for 10 days; type: organism-based; conditions: in vivo, 240 h, time 10 day
BaF3 [18] = assay: PROTAC activity at CRBN/KIF5B-RET G810C mutant (unknown origin) expressed in mouse BaF3 cells assessed as induction of RET G810C mutant degradation at 1 to 100 nM incubated for 24 hrs by immunoblot analysis relative to control; type: cell-based; conditions: dose 1-100 nM
[19] = Induction of apoptosis in mouse BaF3 cells stably expressing KIF5B-RET G810C mutant assessed as necrotic cells at 20 nM incubated for 48 hrs by Annexin V-FITC/PI staining based flow cytometry (reference value: 0.94 %); type: functional
[20] = Induction of apoptosis in mouse BaF3 cells stably expressing KIF5B-RET G810C mutant assessed as early apoptotic cells at 20 nM incubated for 48 hrs by Annexin V-FITC/PI staining based flow cytometry (reference value: 0.86 %); type: functional

COc1ccc(CN2C3CC2CN(c2ccc(-c4cc(N5CCC(N6CCN(CCCC#Cc7cccc8c7CN(C7CCC(=O)NC7=O)C8=O)CC6)CC5)cn5ncc(C#N)c45)cn2)C3)cn1 (centres undefined)
DC50 [1]: 0.0117 µM
Activity [2]: 55.4%
IC50 (HeLa): > 5 µM
IC50 (HL-60): > 5 µM
Activity [3]: 1.45%
Activity [4]: 17.41%
inhibition in vivo at 10 mg/kg (BaF3 [5]): 85.1%
IC50 (BaF3 [6]): 0.121 µM
IC50 (BaF3 [7]): 0.0045 µM
IC50 (MCF7): > 5 µM
Activity [8]: 71.3%
IC50 (BaF3 [9]): 0.0065 µM
Tmax [10]: 4.98 min
Activity [11]: 15.31%
Activity [12]: Active
viability at 0.01 µM [13]: 64.3%
viability at 0.02 µM [14]: 43.4%
Activity (BaF3 [15]): 65%
IC50 [16]: > 5 µM
IC50 (A549): > 5 µM
Activity [17]: Non-toxic
Emax (BaF3 [18]): 91%
Activity [19]: 1.01%
Activity [20]: 38.21%
